Data taken from patent US6825236B2, “Colchicine derivatives” (California Pacific Medical Center, priority 2003, dated 2004).

How the values were obtained:
[1] = tested on: MTG-B mouse mammary adenocarcinoma; assay: In vivo efficacy in mice bearing MTG-B tumors; parameters: species or system C3H/HeJ mice; conditions: for Surviving days after treatment of MTG-B mouse mammary adenocarcinoma in C3H/Hcj mice: i.p., days from day 0, survival time of control mice generally 6 days; for T/C %: surviving days of treated mice / surviving days of control mice x 100%
Experimental: This example provides directions for performing in vivo efficacy tests of the compounds of the invention on C3H/HeJ mice bearing MTG-B tumors.
Studies on the compounds of this invention are performed on C3H/HeJ mice bearing MTG-B tumors. The tumors grow exponentially following implantation into the flanks of the mice and reached a diameter of 8 mm (268.08 mm^3) by day 7 to 10. Treatment is initiated at that time, with the first day of treatment designated as day 0 for calculation and plots. The mice are injected i.p. with three drug dose levels (⅓, ½, 1 5 MTD) using both a single injection and the schedule of Q2D 5 3 (every 2 days for a total of 3 treatments at ⅓ MTD). Control groups of mice bearing 8 mm diameter tumors are treated with vehicle alone. After drug treatment, the mice are observed twice a day. When a tumor reaches 1.5 g, the mouse bearing the tumor wis euthanized. Surviving days measured from day 0 for mice treated with anticancer drugs (T) and surviving days measured from day 0 for control mice (C) are recorded. Tumor growth inhibition values (T/C %) are calculated using the formula T/C %=(surviving days of mice treated with an anticancer drug T/surviving days of control mice C) 5 100%.
Tumor sizes may be measured by caliper every day. Daily measurement (mm) of solid tumor (length L and width W) in two dimensions is used to calculate the tumor weight [tumor weight=(length 5 width^2)/2] based on the interchangeable value of 1 mm^3=1 mg. Tumor growth delay (T−C value) is determined by calculation of the median time (in days) required for the treatment group and control group tumors to reach 1,000 mg. Tumor doubling time (Td) is measured, and tumor cell kill is calculated by the formula of log cell kill=(T−C value)/(3.32 5 Td). Regression effects after treatment may be observed and recorded (a complete regression: a regression below limit of palpation; a partial regression: a regression of more than 50% reduction in tumor mass).
Generally, the survival time of the control mice is six (6) days. A ratio of the extra days of survival of mice treated with the compounds of the invention (compared to control) to the extra days of survival of mice treated with taxol (compared to control), can be calculated. For example, if the mice survived 18 days as compared to 9 days for taxol-treated mice, the CD/Taxol ratio would be 18−6/9−6=12/3=4 or 400%.
The following Table II provides a summary of the in vivo toxicity and iv vivo efficacy tests described in Examples 41 and 42 for the compounds tested.

C3H/HeJ mice = assay: In vivo toxicity (MTD / nontoxicity dose), intraperitoneal injection; conditions: highest dose causing no severe irreversible toxicity
Experimental: This example provides directions for performing in vivo toxicity tests of the compounds of the invention on C3H/HeJ mice.
Acute toxicities of the compounds of this invention are evaluated on C3H/HeJ mice (body weight 18-22 g). The MTD40 (maximum tolerated dose at day 40) values are determined by the standard procedure described by Gad and Chengelis (see, for example, “Acute Toxicology Testing,” 2nd Ed., Shayne O. Gad and Christopher P. Chengelis, pp. 186-195 (Academic Press).) In the consecutive type studies, 2 mice are dosed at low and moderate doses of 40 and 100 mg/kg. If no severe and irreversible toxicity (euthanasia is required) occurs at these doses, a new pair of animals is initiated at 180 mg/kg, which is 1.8 times higher than 100 mg/kg. Sequential dosages (about 3 doses on 3 pairs of animals, i.e. 2 mice for each drug dose) are increased by a factor of 1.8 until severe and irreversible toxicity (euthanasia is required) occurred. Then another pair of animals is initiated at the highest nonlethal dosage, and successive dosages were increased by a factor of 1.15. The result of this exercise is two dosages, one apparently nonlethal and the other lethal if severe and irreversible toxicity occurs and euthanasia is required, separated by a factor of 1.15. Six mice are dosed at each dosage. If no severe and irreversible toxicity occurs at the lower dosage and at least one with severe and irreversible toxicity occurs at the higher dose, then the lower dose is considered to be the MTD. The compounds of this invention are administered to C3H/HeJ mice by intraperitoneal injection (IP). Drug toxicity is evaluated on mice checked daily for 45 days. The toxicity parameters reported will be the MTD40.

HCT116 = assay: Cell colony formation assay; type: cell-based; conditions: 72 hours with drug, colonies counted after 7 days
Experimental: This example provides directions for growing cells and testing compounds of the invention for their effect on the growth of the cells. All cells were purchased from DCTDC Tumor Repository, NCI, NIH.
Cell Colony Formation Assay
Four hundred cells (HCT 116, PC-3) or five hundred cells (VM46) were plated in 60 mm Petri dishes containing 2.7 ml of medium (modified McCoy's 5a medium) containing 10% fetal bovine serum and 100 units/ml penicillin and […] streptomycin. The cells were incubated in a CO2 incubator at 37° C. for 5 hours for attachment to the bottom of Petri dishes. Drugs were made fresh in medium at ten times the final concentration, and then 0.3 ml of this stock solution was added to the 2.7 ml of medium in the dish. The cells were then incubated with drugs for 72 hours at 37° C. At the end of the incubation the drug-containing media were decanted, the dishes were rinsed with 4 ml of Hank's Balance Salt Solution (HBSS), 5 ml of fresh medium was added, and the dishes were returned to the incubator for colony formation. The cell colonies were counted using colony counter after incubation for 7 days for HCT116 cells and PC-3 cells and 8 days for VM46 cells, respectively.
Values of ID50 (the drug concentration producing 50% inhibition of colony formation) may be determined for each tested compound. The directions described in this example may be used in other cells, such as DU-145.

With COc1cc2c(c(OC)c1OC)-c1ccc(OC)c(=O)cc1C(NC(C)=O)CC2 (stereo not drawn) [Colchicine] the “Surviving days after treatment of MTG-B mouse mammary adenocarcinoma in C3H/Hcj mice” value (“Surviving days after treatment … in C3H/Hcj mice” below) [1] was 9 days, the T/C % [1] was 150% and the “In Vivo Toxicity Nontoxicity Dose (ip. mg/kg) in C3H/Hej mice” value (C3H/HeJ mice) was 1.6 (0.5) mg/kg. The “Survival (%) of HCT116” value (HCT116; 1 nM) was 100%, the “Survival (%) of HCT116” value (HCT116; 10 nM) was 76.1% and the “Survival (%) of HCT116” value (HCT116; 100 nM) was 0%.
With COc1cc2c(c(OC)c1OC)-c1ccc(SC)c(=O)cc1C(NC(=O)COc1ccc(Br)cc1)CC2 (stereo not drawn) [Compound 000815, N-Deacetyl-N-(4-bromophenoxyacetyl)thiocoichicine] the “Surviving days after treatment … in C3H/Hcj mice” value [1] was 9 days, the T/C % [1] was 150% and the “In Vivo Toxicity Nontoxicity Dose (ip. mg/kg) in C3H/Hej mice” value (C3H/HeJ mice) was 100 (100) mg/kg. The “Survival (%) of HCT116” value (HCT116; 10 nM) was 93.8% and the “Survival (%) of HCT116” value (HCT116; 100 nM) was 0%.
With COc1ccc(OCC(=O)N[C@H]2CCc3cc(OC)c(OC)c(OC)c3-c3ccc(SC)c(=O)cc32)cc1 [Compound 000825, N-Deacetyl-N-(4-methoxyphenoxyacetyl)thiocolchicine] the “Surviving days after treatment … in C3H/Hcj mice” value [1] was 18 days, the “In Vivo Toxicity Nontoxicity Dose (ip. mg/kg) in C3H/Hej mice” value (C3H/HeJ mice) was 50 (30) mg/kg and the “Survival (%) of HCT116” value (HCT116; 1 nM) was 90.25%. For the same molecule, the “Survival (%) of HCT116” value (HCT116; 10 nM) was 0% and the “Survival (%) of HCT116” value (HCT116; 100 nM) was 0%.
With COc1cc2c(c(OC)c1OC)-c1ccc(SC)c(=O)cc1C(NC(=O)COc1ccc(C=O)cc1)CC2 (stereo not drawn) [Compound 000829, N-Deacetyl-N-(4-formylphenoxyacetyl)thiocolchicine] the “Surviving days after treatment … in C3H/Hcj mice” value [1] was 13 days, the T/C % [1] was 217% and the “In Vivo Toxicity Nontoxicity Dose (ip. mg/kg) in C3H/Hej mice” value (C3H/HeJ mice) was 150 (120) mg/kg. The “Survival (%) of HCT116” value (HCT116; 1 nM) was 100%, the “Survival (%) of HCT116” value (HCT116; 10 nM) was 0% and the “Survival (%) of HCT116” value (HCT116; 100 nM) was 0%.
For COc1cc2c(c(OC)c1OC)-c1ccc(SC)c(=O)cc1C(NC(=O)COc1ccccc1[N+](=O)[O-])CC2 (stereo not drawn) [Compound 000830, N-Deacetyl-N-(2-nitrophenoxyacetyl)thiocolchicine], the “Surviving days after treatment … in C3H/Hcj mice” value [1] was 8 days, the T/C % [1] was 133% and the “In Vivo Toxicity Nontoxicity Dose (ip. mg/kg) in C3H/Hej mice” value (C3H/HeJ mice) was 150 (120) mg/kg. For the same molecule, the “Survival (%) of HCT116” value (HCT116; 10 nM) was 9.01% and the “Survival (%) of HCT116” value (HCT116; 100 nM) was 0%.
In the case of COc1cc2c(c(OC)c1OC)-c1ccc(SC)c(=O)cc1C(NC(=O)c1cccc(NC(=O)CCl)c1)CC2 (stereo not drawn) [Compound 000911, N-Deacetyl-N-(3-chloroacetaminobenzoyl)thiocolchicine], the “Surviving days after treatment … in C3H/Hcj mice” value [1] is reported as 11 days, the T/C % [1] is reported as 183% and the “In Vivo Toxicity Nontoxicity Dose (ip. mg/kg) in C3H/Hej mice” value (C3H/HeJ mice) is reported as 30 (30) mg/kg. For the same molecule, the “Survival (%) of HCT116” value (HCT116; 1 nM) was 100%, the “Survival (%) of HCT116” value (HCT116; 10 nM) was 0% and the “Survival (%) of HCT116” value (HCT116; 100 nM) was 0%.
